Measurements from US9820972B2, “Antiviral compounds highly effective as HCV-NS5A inhibitor” (priority 2013, dated 2017).
Where two headings read alike, the source gives them in different places.

What was measured:
[1] = tested on: HCV NS5A Replicon GT-2a; assay: HCV double reporter gene replicon assay, GT-2a; type: cell-based; details: Hepatitis C virus, genotype 1a / genotype 2a / genotype 6a; GT-2a replicon
Method: (§1) Antiviral Assay for Inhibition Activity (EC50):
(§2) The study is completed by a new constructed double reporter genes replicon assay system, the capacity of viral replicon in infected cell is determined by detecting the reporter gene Renilla luciferase. The relationship of reporter genes, HCV RNA replicon and viral proteins is well linear. 8 gradient concentrations for 2-fold dilution, 3 wells, 3 times repetition and 1 or 2 control drugs are set to finally determine EC50 of compound.
(§3) THF was distilled from sodium metal and benzophenone. DCM, pentane and hexane were distilled form calcium hydride. Special raw material and intermediate in the invention were ordered by contract synthesis from Zannan SciTech Co., Let in China, others reagents were purchased from Shanghai reagent company, Aldrich, Acros etc. As intermediates or products during the synthesis is not required for the reaction and other tests the next step, the synthesis is repeated until a sufficient number of times. The invention of the prepared compounds of […] (HCV NS5A) inhibitory activity test was performed by CRO service units such as WuXi AppTec etc.

[2] = tested on: GT-1a of NS5A Replicon; assay: HCV double reporter gene (Renilla luciferase) replicon assay, GT-1a; type: cell-based, Hepatitis C virus (HCV)
Procedure, shortened: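 Replication measured in a double-reporter HCV replicon cell system by Renilla luciferase signal. EC50 from 8-point 2-fold dilutions, triplicate wells, three repeats, with 1 or 2 control drugs.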

[3] = tested on: HCV NS5A Replicon GT-1b; assay: HCV double reporter gene replicon assay, GT-1b; type: cell-based; details: Hepatitis C virus, genotype 1a / genotype 1b / genotype 6a; GT-1b replicon
Method: as §1, §2, §3

[4] = Acute Toxicity Study (MTD); type: in vivo, rats and mice; details: rats or mice, fed once, oral dose 10000 mg/kg, observed for a week
Text: Acute Toxicity Study (MTD):
Materials and Methods for MTD Study are as follows:
Animals were fed freely for adaptation more than 1 week. Healthy rats, body weight between 170-190 g, were divided randomly into 3 groups, 5 male and 5 female in each group. Healthy mice, body weight between 18-22 g, were divided randomly into 22 groups, 5 male and 5 female in each group.
In rats, the compound weighing 21.00 g, serial number 1-3 respectively, adding 0.7% sodium carboxymethyl cellulose solution 30.00 g, high-speed homogenizer machine 15000 RPM, 10 min mixing, the rats were fed once, oral dose 10000 mg/kg. In mice, the compound weighing 2.00 g, serial number 4-25 respectively, adding 0.7% sodium carboxymethyl cellulose solution 8.00 g, high-speed homogenizer machine 10000 RPM, 10 min mixing, the mice were fed once, oral dose 10000 mg/kg.
Animals were observed every hour after administration in the first day, and behavior observation daily continuous for a week. Dead animals were necropsied, gross pathology of the organs were observed and recorded.
Toxicity was evaluated by animal mortality, signs of clinical behavior and others.

[5] = tested on: HCV NS5A Replicon GT-6a; assay: HCV double reporter gene replicon assay, GT-6a; type: cell-based; details: Hepatitis C virus, genotype 1a / genotype 6a; GT-6a replicon
Method: as §1, §2, §3

[6] = tested on: HCV NS5A Replicon GT-3a; assay: HCV double reporter gene replicon assay, GT-3a; type: cell-based; details: Hepatitis C virus, genotype 1a / genotype 3a / genotype 6a; GT-3a replicon
Method: as §1, §2, §3

[7] = tested on: HCV NS5A Replicon GT-4a; assay: HCV double reporter gene replicon assay, GT-4a; type: cell-based; details: Hepatitis C virus, genotype 1a / genotype 4a / genotype 6a; GT-4a replicon
Method: as §1, §2, §3

[8] = tested on: HCV NS5A Replicon GT-5a; assay: HCV double reporter gene replicon assay, GT-5a; type: cell-based; details: Hepatitis C virus, genotype 1a / genotype 5a / genotype 6a; GT-5a replicon
Method: as §1, §2, §3

[9] = Hepatitis C virus, genotype 1a / genotype 6a, read-out: EC50 for Replicon (pM) of GT-1a to GT-6a: 1a
[10] = Hepatitis C virus, GT1A, GT-1a replicon, class symbols, read-out: EC50 For GT-1a of NS5A Replicon

**Q.** For `COC(=O)N[C@H](C(=O)N1CC=C[C@H]1c1ncc(-c2ccc(-c3ccc(-c4c[nH]c([C@@H]5CCCN5C(=O)[C@@H](NC(=O)OC)C(C)C)n4)cc3)cc2)[nH]1)C(C)C` [Compound 6ba], which EC50 [1] is on record?
**A.** 16 pM

**Q.** What about the EC50 [2, 9] of the same compound?
**A.** 39 pM

**Q.** And the EC50 [3]?
**A.** 12 pM

**Q.** What about the “MTD results: test-article related death and adverse events” value (“MTD results” below) [4] of the same compound?
**A.** no any test-article related death and no any adverse events observed

**Q.** What about the EC50 [5] of the same compound?
**A.** 221 pM

**Q.** With `COC(=O)N[C@H](C(=O)N1CCCC1c1nc(-c2ccc(-c3ccc(-c4c[nH]c(C5C=CCN5C(=O)[C@H](NC(=O)OC)c5ccccc5)n4)cc3)cc2)c[nH]1)C(C)C` (stereo partly drawn) [Compound 6bx] as the compound, how does the EC50 [2, 10] read?
**A.** 1 to 999 pM

**Q.** And the “MTD results” value [4]?
**A.** no any test-article related death and no any adverse events observed

**Q.** Which EC50 [2, 10] does the source give for `COC(=O)N[C@H](C(=O)N1CC=CC1c1nc(-c2ccc(-c3ccc(-c4c[nH]c(C5CCCN5C(=O)[C@H](NC(=O)OC)c5ccccc5)n4)cc3)cc2)c[nH]1)C(C)C` (stereo partly drawn) [Compound 6by] here?
**A.** 1 to 999 pM

**Q.** And the “MTD results” value [4]?
**A.** no any test-article related death and no any adverse events observed

**Q.** For `COC(=O)N[C@@H](C(=O)N1CC=CC1c1nc(-c2ccc(-c3ccc(-c4c[nH]c(C5CCCN5C(=O)[C@H](NC(=O)OC)c5ccccc5)n4)cc3)cc2)c[nH]1)c1ccccc1` (stereo partly drawn) [Compound 6bz], which EC50 [2, 10] is on record?
**A.** 1 to 999 pM

**Q.** What about the “MTD results” value [4] of the same compound?
**A.** no any test-article related death and no any adverse events observed

**Q.** Which results are given for `COC(=O)N[C@H](C(=O)N1CCC[C@H]1c1nc(-c2ccc(-c3ccc(-c4cnc([C@@H]5C=CCN5C(=O)[C@H](NC(=O)OC)c5ccccc5)[nH]4)cc3)cc2)c[nH]1)C(C)C` [Compound 6dy]?
**A.** EC50 [1]: 6 pM; EC50 [2, 9]: 11 pM; EC50 [3]: 14 pM; EC50 [5]: 24 pM

**Q.** For `COC(=O)N[C@H](C(=O)N1CCCC1c1nc(-c2cc3sc(-c4ccc(-c5c[nH]c(C6C=CCN6C(=O)[C@H](NC(=O)OC)c6ccccc6)n5)cc4)cc3s2)c[nH]1)C(C)C` (stereo partly drawn) [Compound 6fc], which “MTD results” value [4] is on record?
**A.** no any test-article related death and no any adverse events observed

**Q.** With `COC(=O)N[C@@H](C(=O)N1CC=CC1c1nc(-c2ccc(-c3cc4sc(-c5c[nH]c(C6CCCN6C(=O)[C@H](NC(=O)OC)c6ccccc6)n5)cc4s3)cc2)c[nH]1)c1ccccc1` (stereo partly drawn) [Compound 6fd] as the compound, how does the EC50 [6] read?
**A.** 15 pM

**Q.** What about the EC50 [7] of the same compound?
**A.** 8 pM

**Q.** What about the EC50 [1] of the same compound?
**A.** 5 pM

**Q.** What about the EC50 [2, 10] of the same compound?
**A.** 1 to 999 pM

**Q.** And the EC50 [2, 9]?
**A.** 21 pM

**Q.** And the EC50 [3]?
**A.** 11 pM

**Q.** What about the EC50 [8] of the same compound?
**A.** 23 pM

**Q.** And the “MTD results” value [4]?
**A.** no any test-article related death and no any adverse events observed

**Q.** What about the EC50 [5] of the same compound?
**A.** 111 pM

**Q.** For `COC(=O)N[C@H](C(=O)N1CC=C[C@H]1c1ncc(-c2ccc(-c3cc4sc(-c5cnc([C@@H]6CCCN6C(=O)[C@@H](NC(=O)OC)C(C)C)[nH]5)cc4s3)cc2)[nH]1)C(C)C` [Compound 6fg], which EC50 [2, 10] is on record?
**A.** 1 to 999 pM

**Q.** What about the “MTD results” value [4] of the same compound?
**A.** no any test-article related death and no any adverse events observed

**Q.** For `COC(=O)N[C@H](C(=O)N1CC=C[C@H]1c1ncc(-c2ccc(-c3cc4sc(-c5cnc([C@@H]6CCCN6C(=O)[C@H](NC(=O)OC)c6ccccc6)[nH]5)cc4s3)cc2)[nH]1)C(C)C` [Compound 6fi], which EC50 [1] is on record?
**A.** 7 pM

**Q.** What about the EC50 [2, 9] of the same compound?
**A.** 20 pM

**Q.** And the EC50 [3]?
**A.** 5 pM

**Q.** And the “MTD results” value [4]?
**A.** no any test-article related death and no any adverse events observed

**Q.** What about the EC50 [5] of the same compound?
**A.** 55 pM

**Q.** With `COC(=O)N[C@H](C(=O)N1CCC[C@H]1c1ncc(-c2ccc(-c3cc4sc(-c5cnc([C@@H]6C=CCN6C(=O)[C@H](NC(=O)OC)c6ccccc6)[nH]5)cc4s3)cc2)[nH]1)C(C)C` [Compound 6fm] as the compound, how does the EC50 [1] read?
**A.** 8 pM

**Q.** What about the EC50 [2, 9] of the same compound?
**A.** 9 pM

**Q.** And the EC50 [3]?
**A.** 13 pM

**Q.** And the “MTD results” value [4]?
**A.** no any test-article related death and no any adverse events observed

**Q.** And the EC50 [5]?
**A.** 23 pM

**Q.** For `COC(=O)N[C@H](C(=O)N1CC=C[C@H]1c1ncc(-c2cc3sc(-c4ccc(-c5cnc([C@@H]6CCCN6C(=O)[C@H](NC(=O)OC)c6ccccc6)[nH]5)cc4)cc3s2)[nH]1)C(C)C` [Compound 6fp], which EC50 [2, 10] is on record?
**A.** 1 to 999 pM

**Q.** What about the “MTD results” value [4] of the same compound?
**A.** no any test-article related death and no any adverse events observed

**Q.** What does the source list for `COC(=O)N[C@H](C(=O)N1CCC[C@H]1c1nc(-c2ccc(-c3ccc(-c4c[nH]c([C@@H]5CCCN5C(=O)[C@@H](NC(=O)OC)C(C)C)n4)cc3)cc2)c[nH]1)C(C)C` [Ref-1, reference compound]?
**A.** EC50 [1]: 29 pM; EC50 [2, 9]: 52 pM; EC50 [3]: 21 pM; EC50 [5]: 118 pM

**Q.** Which EC50 ([2]; Hepatitis C virus, GT1A, read-out: EC50 For GT-1a of NS5A Replicon) does the source give for `COC(=O)N[C@H](C(=O)N1CC2(CC2)C[C@H]1c1nc(-c2ccc3c(c2)C(F)(F)c2cc(-c4ccc5[nH]c([C@@H]6[C@H]7CC[C@H](C7)N6C(=O)[C@@H](NC(=O)OC)C(C)C)nc5c4)ccc2-3)c[nH]1)C(C)C` [Ref-2, reference compound] here?
**A.** 1 to 999 pM

**Q.** And the EC50 [2, 9]?
**A.** 88 pM

**Q.** Which results are given for `COC(=O)N[C@@H](C(=O)N1CCCC1c1ncc(-c2ccc(-c3cc4sc(-c5cnc([C@@H]6CCCN6C(=O)[C@H](NC(=O)OC)c6ccccc6)[nH]5)cc4s3)cc2)[nH]1)c1ccccc1` (stereo partly drawn) [Ref-3, reference compound]?
**A.** EC50 [2, 10]: 1 to 999 pM; EC50 [2, 9]: 51 pM

**Q.** With `COC(=O)N[C@H](C(=O)N1CCC[C@H]1c1nc2cc(-c3csc4c(-c5ccc(-c6c[nH]c([C@@H]7CCCN7C(=O)[C@H](NC(=O)OC)c7ccccc7)n6)cc5)csc34)ccc2[nH]1)C(C)C` [Ref-4, reference compound] as the compound, how does the EC50 ([2]; GT-1a replicon, class symbols, read-out: EC50 For GT-1a of NS5A Replicon) read?
**A.** 1 to 999 pM
